{"source": "patent US10987359B2", "about": "“Oxadiazepinone derivatives and methods of treating hepatitis B infections” (priority 2016, dated 2021)"}
{"test_system": "HBV", "experiment": "HBV replication inhibition assay (BDNA assay) in HepG2.2.15 cells", "format": "cell-based", "conditions": "Hepatitis B virus, HepG2.2.15, HBV replication assay (BDNA assay), HepG2.2.15 cells; read-out: DNA EC50", "how_it_was_run": "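Supernatant encapsidated HBV DNA was measured by bDNA after DNase digestion and proteinase K release. Stably HBV-integrated HepG2.2.15 cells had two 3-day compound exposures (0.5% DMSO). Signals were background-subtracted and normalized to DMSO wells, and EC50 was obtained by four-parameter fit.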", "units": {"EC50": "nM"}}
{"molecule": "CN1OC(CNC(=O)CC#N)Cn2nc3c(c2C1=O)CN(C(=O)Nc1ccc(F)c(Cl)c1)CC3", "note": "(centres unmarked) [Compound 205, N-(3-chloro-4-fluorophenyl)-4-((2-cyanoacetamido)methyl)-2-methyl-1-oxo-1,4,5,8,9,11-hexahydropyrido[4′,3′:3,4]pyrazolo[5,1-d][1,2,5]oxadiazepine-10(2H)-carboxamide]", "EC50": "1 to 100"}
{"molecule": "CN1OC(CNC(=O)CO)Cn2nc3c(c2C1=O)CN(C(=O)Nc1ccc(F)c(Cl)c1)CC3", "note": "(centres unmarked) [Compound 206, N-(3-chloro-4-fluorophenyl)-4-((2-hydroxyacetamido)methyl)-2-methyl-1-oxo-1,4,5,8,9,11-hexahydropyrido[4′,3′:3,4]pyrazolo[5,1-d][1,2,5]oxadiazepine-10(2H)-carboxamide]", "EC50": "1 to 100"}
{"molecule": "CN1OC(CNC(=O)OCC(F)(F)F)Cn2nc3c(c2C1=O)CN(C(=O)Nc1ccc(F)c(Cl)c1)CC3", "note": "(centres unmarked) [Compound 207, 2,2,2-trifluoroethyl ((10-((3-chloro-4-fluorophenyl)carbamoyl)-2-methyl-1-oxo-1,2,4,5,8,9,10,11-octahydropyrido[4′,3′:3,4]pyrazolo[5,1-d][1,2,5]oxadiazepin-4-yl)methyl)carbamate]", "EC50": "1 to 100"}
{"molecule": "CCS(=O)(=O)NCC1Cn2nc3c(c2C(=O)N(C)O1)CN(C(=O)Nc1ccc(F)c(Cl)c1)CC3", "note": "(centres unmarked) [Compound 208, N-(3-chloro-4-fluorophenyl)-4-(ethylsulfonamidomethyl)-2-methyl-1-oxo-1,4,5,8,9,11-hexahydropyrido[4′,3′:3,4]pyrazolo[5,1-d][1,2,5]oxadiazepine-10(2H)-carboxamide]", "EC50": "1 to 100"}
{"molecule": "CN1OC(CO)Cn2nc3c(c2C1=O)CC(C(=O)Nc1ccc(F)c(Cl)c1)CC3", "note": "(centres unmarked) [Compound 209, N-(3-chloro-4-fluoro-phenyl)-4-(hydroxymethyl)-2-methyl-1-oxo-4,5,8,9,10,11-hexahydro-[1,2,5]oxadiazepino[5,4-b]indazole-10-carboxamide]", "EC50": "500 to 1000"}
{"molecule": "C[C@@H]1Cc2nn3c(c2CN1C(=O)Nc1ccc(F)c(C#N)c1)C(=O)N(C)O[C@H](COCC(F)(F)F)C3", "note": "[Compound 210, (4S,9R)—N-(3-cyano-4-fluorophenyl)-2,9-dimethyl-1-oxo-4-((2,2,2-trifluoroethoxy)methyl)-1,4,5,8,9,11-hexahydropyrido[4′,3′:3,4]pyrazolo[5,1-d][1,2,5]oxadiazepine-10(2H)-carboxamide]", "EC50": "1 to 100"}
{"molecule": "C[C@@H]1Cc2nn3c(c2CN1C(=O)Nc1ccc(F)c(C#N)c1)C(=O)N(C)OC(C)(C)C3", "note": "[Compound 213, (R)—N-(3-cyano-4-fluorophenyl)-2,4,4,9-tetramethyl-1-oxo-1,4,5,8,9,11-hexahydropyrido[4′,3′:3,4]pyrazolo[5,1-d][1,2,5]oxadiazepine-10(2H)-carboxamide]", "EC50": "1 to 100"}
{"molecule": "C[C@@H]1Cc2nn3c(c2CN1C(=O)Nc1ccc(F)c(C(F)(F)F)c1)C(=O)N(C)OC(C)(C)C3", "note": "[Compound 214, (5R)—N-[4-Fluoro-3-(trifluoromethyl)phenyl]-5,11,11,13-tetramethyl-14-oxo-12-oxa-4,8,9,13-tetrazatricyclo[7.5.0.0^2.7]tetradeca-1,7-diene-4-carboxamide]", "EC50": "1 to 100"}
{"molecule": "CN1NCCn2nc3c(c2C1=O)CN(C(=O)Nc1ccc(F)c(Cl)c1)CC3", "note": "[Compound 216, N-(3-Chloro-4-fluoro-phenyl)-2-methyl-1-oxo-3,4,5,8,9,11-hexahydropyrido[2,3]pyrazolo[2,4-c][1,2,5]triazepine-10-carboxamide]", "EC50": "100 to 500"}
{"molecule": "CN1CCn2nc3c(c2C(=O)N1C)CN(C(=O)Nc1ccc(F)c(Cl)c1)CC3", "note": "[Compound 217, N-(3-Chloro-4-fluorophenyl)-2,3-dimethyl-1-oxo-1,2,3,4,5,8,9,11-octahydro-10H-pyrido[4′,3′:3,4]pyrazolo[5,1-d][1,2,5]triazepine-10-carboxamide]", "EC50": "1 to 100"}
{"molecule": "C=CCN1CCn2nc3c(c2C(=O)N1C)CN(C(=O)Nc1ccc(F)c(C#N)c1)[C@H](C)C3", "note": "[Compound 218, (R)-3-allyl-N-(3-cyano-4-fluorophenyl)-2,9-dimethyl-1-oxo-1,2,3,4,5,8,9,11-octahydro-10H-pyrido[4′,3′:3,4]pyrazolo[5,1-d][1,2,5]triazepine-10-carboxamide]", "EC50": "1 to 100"}
{"molecule": "CCCN1CCn2nc3c(c2C(=O)N1C)CN(C(=O)Nc1ccc(F)c(C#N)c1)[C@H](C)C3", "note": "[Compound 219, (R)—N-(3-cyano-4-fluorophenyl)-2,9-dimethyl-1-oxo-3-propyl-1,2,3,4,5,8,9,11-octahydro-10H-pyrido[4′,3′:3,4]pyrazolo[5,1-d][1,2,5]triazepine-10-carboxamide]", "EC50": "1 to 100"}
{"molecule": "C[C@@H]1Cc2nn3c(c2CN1C(=O)Nc1ccc(F)c(C#N)c1)C(=O)N(C)N(CCO)CC3", "note": "[Compound 220, (R)—N-(3-Cyano-4-fluorophenyl)-3-(2-hydroxyethyl)-2,9-dimethyl-1-oxo-1,2,3,4,5,8,9,11-octahydro-10H-pyrido[4′,3′:3,4]pyrazolo[5,1-d][1,2,5]triazepine-10-carboxamide]", "EC50": "100 to 500"}
{"molecule": "C[C@@H]1Cc2nn3c(c2CN1C(=O)Nc1ccc(F)c(C#N)c1)C(=O)N(C)N(CC(F)F)CC3", "note": "[Compound 221, (R)—N-(3-Cyano-4-fluorophenyl)-3-(2,2-difluoroethyl)-2,9-dimethyl-1-oxo-1,2,3,4,5,8,9,11-octahydro-10H-pyrido[4′,3′:3,4]pyrazolo[5,1-d][1,2,5]triazepine-10-carboxamide]", "EC50": "1 to 100"}
{"molecule": "C[C@@H]1Cc2nn3c(c2CN1C(=O)Nc1ccc(F)c(C#N)c1)C(=O)N(C)N(CCCO)CC3", "note": "[Compound 222, (R)—N-(3-Cyano-4-fluorophenyl)-3-(3-hydroxypropyl)-2,9-dimethyl-1-oxo-1,2,3,4,5,8,9,11-octahydro-10H-pyrido[4′,3′:3,4]pyrazolo[5,1-d][1,2,5]triazepine-10-carboxamide]", "EC50": "100 to 500"}
{"molecule": "CC(O)CN1CCn2nc3c(c2C(=O)N1C)CN(C(=O)Nc1ccc(F)c(C#N)c1)[C@H](C)C3", "note": "(stereo partly drawn) [Compound 223, (9R)—N-(3-Cyano-4-fluorophenyl)-3-(2-hydroxypropyl)-2,9-dimethyl-1-oxo-1,2,3,4,5,8,9,11-octahydro-10H-pyrido[4′,3′:3,4]pyrazolo[5,1-d][1,2,5]triazepine-10-carboxamide]", "EC50": "100 to 500"}
{"molecule": "C[C@@H]1Cc2nn3c(c2CN1C(=O)Nc1ccc(F)c(C#N)c1)C(=O)N(C)N(C)CC3", "note": "[Compound 224, (R)-N-(3-cyano-4-fluorophenyl)-2,3,9-trimethyl-1-oxo-1,2,3,4,5,8,9,11-octahydro-10H-pyrido[4′,3′:3,4]pyrazolo[5,1-d][1,2,5]triazepine-10-carboxamide]", "EC50": "1 to 100"}
{"molecule": "C[C@@H]1Cc2nn3c(c2CN1C(=O)Nc1ccc(F)c(C(F)(F)F)c1)C(=O)N(C)N(C)CC3", "note": "[Compound 225, (R)-N-(4-fluoro-3-(trifluoromethyl)phenyl)-2,3,9-trimethyl-1-oxo-1,2,3,4,5,8,9,11-octahydro-10H-pyrido[4′,3′:3,4]pyrazolo[5,1-d][1,2,5]triazepine-10-carboxamide]", "EC50": "1 to 100"}
{"molecule": "CN1NC(O)(C(F)(F)F)Cn2nc3c(c2C1=O)CN(C(=O)Nc1ccc(F)c(Cl)c1)CC3", "note": "(centres unmarked) [Compound 226, N-(3-chloro-4-fluorophenyl)-4-hydroxy-2-methyl-1-oxo-4-(trifluoromethyl)-1,2,3,4,5,8,9,11-octahydro-10H-pyrido[4′,3′:3,4]pyrazolo[5,1-d][1,2,5]triazepine-10-carboxamide]", "EC50": "> 1000"}
{"molecule": "CN1N=C(CO)Cn2nc3c(c2C1=O)CN(C(=O)Nc1ccc(F)c(Cl)c1)CC3", "note": "[Compound 227, N-(3-chloro-4-fluorophenyl)-4-(hydroxymethyl)-2-methyl-1-oxo-1,2,5,8,9,11-hexahydro-10H-pyrido[4′,3′:3,4]pyrazolo[5,1-d][1,2,5]triazepine-10-carboxamide]", "EC50": "1 to 100"}
{"molecule": "CN1N=C(CO)Cn2nc3c(c2C1=O)CN(C(=O)Nc1ccc(F)c(C#N)c1)CC3", "note": "[Compound 228, N-(3-cyano-4-fluorophenyl)-4-(hydroxymethyl)-2-methyl-1-oxo-1,2,5,8,9,11-hexahydro-10H-pyrido[4′,3′:3,4]pyrazolo[5,1-d][1,2,5]triazepine-10-carboxamide]", "EC50": "1 to 100"}
{"molecule": "CCC(O)C1=NN(C)C(=O)c2c3c(nn2C1)CCN(C(=O)Nc1ccc(F)c(Cl)c1)C3", "note": "(centres unmarked) [Compound 229, N-(3-chloro-4-fluorophenyl)-4-(1-hydroxypropyl)-2-methyl-1-oxo-1,2,5,8,9,11-hexahydro-10H-pyrido[4′,3′:3,4]pyrazolo[5,1-d][1,2,5]triazepine-10-carboxamide]", "EC50": "100 to 500"}
{"molecule": "CC(O)C1=NN(C)C(=O)c2c3c(nn2C1)CCN(C(=O)Nc1ccc(F)c(Cl)c1)C3", "note": "(centres unmarked) [Compound 230, N-(3-chloro-4-fluorophenyl)-4-(1-hydroxyethyl)-2-methyl-1-oxo-1,2,5,8,9,11-hexahydro-10H-pyrido[4′,3′:3,4]pyrazolo[5,1-d][1,2,5]triazepine-10-carboxamide]", "EC50": "1 to 100"}
{"molecule": "CN1N=C(C(O)C2CC2)Cn2nc3c(c2C1=O)CN(C(=O)Nc1ccc(F)c(Cl)c1)CC3", "note": "(centres unmarked) [Compound 231, N-(3-chloro-4-fluorophenyl)-4-(cyclopropyl(hydroxy)methyl)-2-methyl-1-oxo-1,2,5,8,9,11-hexahydro-10H-pyrido[4′,3′:3,4]pyrazolo[5,1-d][1,2,5]triazepine-10-carboxamide]", "EC50": "100 to 500"}
{"molecule": "CC1=NN(C)C(=O)c2c3c(nn2C1)CCN(C(=O)Nc1ccc(F)c(Cl)c1)C3", "note": "[Compound 232, N-(3-chloro-4-fluorophenyl)-2,4-dimethyl-1-oxo-1,2,5,8,9,11-hexahydro-10H-pyrido[4′,3′:3,4]pyrazolo[5,1-d][1,2,5]triazepine-10-carboxamide]", "EC50": "1 to 100"}
{"molecule": "C[C@@H]1Cc2nn3c(c2CN1C(=O)Nc1ccc(F)c(C#N)c1)C(=O)N(C)N=C(CO)C3", "note": "[Compound 233, (R)-N-(3-cyano-4-fluorophenyl)-4-(hydroxymethyl)-2,9-dimethyl-1-oxo-1,2,5,8,9,11-hexahydro-10H-pyrido[4′,3′:3,4]pyrazolo[5,1-d][1,2,5]triazepine-10-carboxamide]", "EC50": "1 to 100"}
